Measured values published in PMC8778187, “A New Oxygen Containing Pyclen-Type Ligand as a Manganese(II) Binder for MRI and ^52Mn PET Applications: Equilibrium, Kinetic, Relaxometric, Structural and Radiochemical Studies” (Molecules, 2022).

Tests used:
[1] = Stability and protonation constants of Mg(II) complexes by pH-potentiometry; format: physicochemical; details: Mg^2+ complex; T = 25 °C, I = 0.15 M NaCl
Method: (§1) The stability and protonation constants of the metal complexes formed with H2OPC2A were determined by pH-potentiometric titrations, but, for the Cu(II) complex, UV-Vis spectrophotometric measurements were also carried out to supplement the pH-potentiometric titration data (Figures S21 and S22, Supporting Information).
(§2) Metal stock solutions were prepared from the highest analytical grade chemicals, and their concentrations were determined by complexometric titration with standardized Na2H2EDTA and eriochrome black T indicator in the presence of ascorbic acid, and potassium hydrogen tartrate for MnCl2, murexide indicator for CaCl2 and CuCl2, eriochrome black T for MgCl2 and xylenol orange in the presence of hexamethylenetetramine for the solution of ZnCl2. The concentration of the ligand stock solution was determined by pH-potentiometric titrations. The protonation constants of the ligand were determined by the pH potentiometric titrations with 0.15 M NaOH, using 0.0025 M ligand solutions. The ionic strength was set to 0.15 M by using NaCl. […]
To avoid the effect of CO2, N2 gas was bubbled through the solutions during the titrations process. […] For the calibration of the pH meter, KH-phtalate (pH = 4.005) and borax (pH = 9.177) buffers were used, and the H^+ ion concentrations were calculated from the measured pH values by applying the method proposed by Irving et al.. […]

[2] = Stability and protonation constants of Zn(II) complexes by pH-potentiometry; format: physicochemical; details: Zn^2+ complex; T = 25 °C, I = 0.15 M NaCl
Method: as §1
as §2, with “NaCl. The titrated samples (starting volume of 6 mL) were stirred mechanically, and thermostated at 25 °C by a circulating water bath (±0.1 °C).” for “NaCl.”
To avoid the effect of CO2, N2 gas was bubbled through the solutions during the titrations process. […] For the calibration of the pH meter, KH-phtalate (pH = 4.005) and borax (pH = 9.177) buffers were used, and the H^+ ion concentrations were calculated from the measured pH values by applying the method proposed by Irving et al.. A solution of approximately 0.01 M HCl was titrated with a 0.15 M NaOH solution (0.15 or 1.00 M NaCl), and the differences between the measured and calculated pH values (for the points with pH < 2.4) were used to calculate the (H^+) from the pH values measured in the titration experiments. […] The stability constants of the metal complexes (except for Cu(II)) were determined using the direct pH-potentiometric method, by titrating samples with 1:1 metal-to-ligand ratios (the number of fitted data pairs were between 127–212), allowing 1 min for the sample equilibration to occur. […]

log KMgL (stability constant of the Mg(II) complex) [1]: 7.02(1)
log KMnHL [2]: 2.08(3)
log KMnL [2]: 14.81(1)
log KMnLOH [2]: 10.95(2)
Compound: O=C(O)CN1CCOCCN(CC(=O)O)Cc2cccc(n2)C1 [H23,9-OPC2A, 6-Oxa-3,9,15-triazabicyclo(9.3.1)pentadeca-1(15),11,13-triene-3,9-diacetic acid]
